Laboratory results reported in PMC10674865, “Identification and Pharmacological Characterization of a Low-Liability Antinociceptive Bifunctional MOR/DOR Cyclic Peptide” (Molecules, 2023).
pEC50: −log10 of the molar value. Marks after values point to notes of the source that are not given here. Positions of bridges follow the written chain, without caps; N, C: chain ends. Non-standard residues stand in square brackets, D forms with d. Residues, ends and D or L forms follow the SMILES beside them. 2Abz = Nc1ccccc1C(=O)O; Dap = NC[C@H](N)C(=O)O

What was measured:
[1] = tested on: mice; test: Opioid-induced hyperalgesia, 48 °C warm water tail-withdrawal assay; assay type: in vivo, mouse; details: for Day 5 tail withdrawal latency, 48 °C warm water stimulus: after twice daily dosing for 4 days (morphine 10 mg/kg, CycloAnt 3 mg/kg i.p.), before day 5 dose, day 1 baselines 10 ± 1.14 s (morphine group), 9.1 ± 0.68 s (CycloAnt group), mean ± SEM, SEM; for Opioid-induced hyperalgesia after chronic administration: twice daily for 4 days, morphine 10 mg/kg, CycloAnt 3 mg/kg i.p., 48 °C
Protocol: The 48 °C warm water tail-withdrawal assay was performed as previously described, with the latency to withdraw the tail taken as the end point. The water temperature of 48 °C was selected for this work to ensure a moderate tail-withdrawal response, with a measurable decrease in withdrawal time possible, but also a significant temperature for hyperalgesic testing. […] After determining control latencies on day 1, mice received chronic morphine (10 mg/kg, i.p.) or CycloAnt (3 mg/kg, i.p.) treatment twice a day for 4 days, as described below. […] Mice were then tested prior to treatment on day 5 for evidence of induced hyperalgesia.

[2] = tested on: mice; test: Antinociceptive tolerance after chronic dosing, 55 °C WWTW; assay type: in vivo, mouse; details: twice daily for 4 days, morphine 10 mg/kg (tested 30 min), CycloAnt 3 mg/kg i.p. (tested 20 min)
Protocol: (§1) Mice were randomly assigned to one of three groups and given saline (i.p.; n = 10), morphine (10 mg/kg, i.p.; n = 10) or CycloAnt (3 mg/kg, i.p.; n = 9) twice daily for 4 days, and once more on the morning of the fifth day. Mice were then tested in the 55 °C WWTW assay to assess for the loss of therapeutic efficacy (antinociceptive tolerance; see above). Two hours after this test, naloxone (10 mg/kg, i.p.) was administrated to all mice to precipitate opioid withdrawal. Mouse activity was digitally recorded and evaluated later for an established record of withdrawal behaviors for 15 min [39]. Immediately upon injection of naloxone, all mice were scored for number of jumps, forepaw tremor, wet dog shakes, straightening, rearing, forepaw licking, teeth chattering, and the presence (as +/−) and number of soft stools.

[3] = tested on: C57BL/6J mice; test: Ambulation (hyperlocomotion) in CLAMS apparatus; assay type: in vivo, mouse; details: for Effect on ambulation (hyperlocomotion): CycloAnt 3 or 10.6 mg/kg i.p., morphine 10 or 30 mg/kg i.p., 120 min
Protocol: (§2) Male C57Bl/6J mice were tested for respiratory effects using automated, computer-controlled Comprehensive Lab Animal Monitoring System (CLAMS) apparatus. Mice (n = 8) were habituated in closed apparatus cages (23.5 × 11.5 × 13 cm^3) for 30 min before being administrated with the hit i.p. at the experimented high dose of 3.0 mg/kg, and an even higher dose at 15 times of the ED50 value, 10.6 mg/kg, i.p. Mice were then returned to chambers, and their respiration rate (breaths/min) was measured for […] in 30 s intervals using a pressure transducer built into the enclosed, sealed CLAMS cage. The resultant change in pressure during mouse breathing was recorded to reveal the respiration rate (breaths/min).
(§3) Infrared beams located in the floor measured locomotion as the number of beam breaks. Respiration and locomotive data were averaged over 20 min periods for 120 min post-injection of the test compound. Data are presented as % vehicle response ± SEM, ambulation or breaths per minute.

[4] = tested on: panel of 47 protein targets, including GPCRs, kinases, nuclear hormone receptors, ion channels, and enzymes; test: Eurofins DiscoverX SAFETYscan Safety47 panel, agonist and antagonist modes; details: 78 assays at 47 targets, other than MOR and DOR
Protocol: (§4) The potential interaction of CycloAnt with a panel of 47 protein targets, including GPCRs, kinases, nuclear hormone receptors, ion channels, and enzymes, was assessed by assays included in the SAFETYscan service from Eurofins DiscoverX. CycloAnt was tested in both agonist and antagonist modes for each representative GPCRs (see Supplemental Material S9–S11).
(§5) CycloAnt interactions with a broad set of molecular targets were determined with the Safety47 Panel Dose Response, using the SAFETYscan provided by Eurofins DiscoverX. This panel utilizes 78 assays at 47 protein targets, including GPCRs, kinases, nuclear hormone receptors, ion channels, and enzymes. […] CycloAnt only interacted with MOR and DOR in the panel, showing agonist activity at both receptors using the cAMP assay. […] This discrepancy on the function at DOR may be accounted for receptor reserve, as a very weak partial agonist/antagonist can appear as a full agonist when receptor reserve is present. […] Regardless, consistent with the SAFETYscan results, CycloAnt was not found to produce any significant biological activity at any other targets in this study than DOR and MOR.

[5] = tested on: C57BL/6J mice; test: Respiration rate in CLAMS apparatus; assay type: in vivo, mouse; details: CycloAnt 3.0 or 10.6 mg/kg i.p.; morphine 10 or 30 mg/kg i.p.; 120 min period
Protocol: as §2, §3

[6] = molecular target: T1, MOR (Homo sapiens, UniProt P35372); test: SAFETYscan cAMP assay, agonist mode, cells overexpressing MOR; assay type: cell-based; details: cells overexpressing receptor, read-out: MOR agonism EC50
Protocol: as §4, §5

[7] = tested on: mice; test: Naloxone-precipitated opioid withdrawal (physical dependence); assay type: in vivo, mouse; details: for Forepaw Tremor: CycloAnt 3 mg/kg (n = 9) or morphine 10 mg/kg (n = 10) i.p. twice daily 4 days + day 5, naloxone 10 mg/kg i.p. 120 min later, scored 15 min, average; for Forepaw Licking Frequency / Jumping Frequency / Number of soft stools / Presence of diarrhea / Rearing Frequency / Straightening / Teeth Chattering Frequency / Wet Dog Shakes: as E25
Protocol: as §1

[8] = molecular target: DOR (Homo sapiens, UniProt P41143); test: SAFETYscan cAMP assay, agonist mode, cells overexpressing DOR; assay type: cell-based; details: cells overexpressing receptor, read-out: DOR agonism EC50
Protocol: as §4, §5

[9] = tested on: C57BL/6J male mice; test: 55 °C warm water tail-withdrawal (WWTW) assay, antinociception; assay type: in vivo, mouse
Protocol: The 55 °C warm water tail-withdrawal assay was performed, as previously described, [52] to screen the library. Mixed-based samples were dissolved at a concentration of 5 mg/mL in saline containing 10% DMSO. Each sample was given to mice (n = 8) intraperitoneally (i.p.) at a dose of 5 mg/kg. At 0.5, 1, 2, 3.5, 5, 8 h post-administration of the samples, the tail-withdrawal latencies were measured for each sample. The average response time to tail-withdrawal at the six time points were then combined. The combined response time to withdrawal tail was used to determine the antinociceptive effect of each sample. A cutoff of 15 s was used to avoid tissue damage; those mice failing to withdraw their tails within this time were assigned a maximal antinociceptive score of 100%.
To determine antinociceptive activity of individual compounds, the tail-withdrawal latency was determined repeatedly every 10 min, following administration of the compounds for 1 h or until latencies returned to baseline values. At each time point, antinociception was calculated according to the following formula: % antinociception = 100 × (test latency − control latency)/(15 − control latency). Tail-withdrawal data points are the means of 8–16 mice, unless otherwise indicated, with SEM shown by error bars.
Percent antinociception was used to determine within-group effects and to allow comparison to baseline latency in tail-withdrawal experiments. The statistical significance of differences between ED50 values was determined by evaluation of the ED50 value shift via nonlinear regression modeling with Prism 10.0 software. Significant differences in behavioral data were analyzed by ANOVA (one-way or two-way with repeated measures (RM), as appropriate). Significant results were further analyzed with Sidak’s, Tukey’s, or Dunnett’s multiple comparison post hoc tests, as appropriate. All data are presented as mean ± SEM, with significance set at p < 0.05.

[10] = molecular target: T1, MOR; details: receptor-binding assay; cited from earlier work
Excerpt: However, that cyclic peptide has a sequence of Tyr-[D-Lys-Dap(Ant)-Tyr-Gly], differing from the sequence Tyr-[D-Lys-Dap(Ant)-Thr-Gly] identified in this study. The di ...

T1 sequence (P35372 whole entry): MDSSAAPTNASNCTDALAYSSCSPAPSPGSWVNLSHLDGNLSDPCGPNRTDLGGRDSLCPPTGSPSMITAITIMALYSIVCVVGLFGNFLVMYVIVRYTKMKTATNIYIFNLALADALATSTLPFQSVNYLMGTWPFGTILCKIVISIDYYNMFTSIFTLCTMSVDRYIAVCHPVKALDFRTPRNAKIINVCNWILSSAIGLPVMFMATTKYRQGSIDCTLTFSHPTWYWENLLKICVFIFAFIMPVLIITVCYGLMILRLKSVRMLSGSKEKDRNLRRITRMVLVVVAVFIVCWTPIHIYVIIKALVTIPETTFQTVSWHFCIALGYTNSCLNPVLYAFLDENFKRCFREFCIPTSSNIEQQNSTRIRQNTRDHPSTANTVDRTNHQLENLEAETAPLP
DOR, sequence (P41143 whole entry): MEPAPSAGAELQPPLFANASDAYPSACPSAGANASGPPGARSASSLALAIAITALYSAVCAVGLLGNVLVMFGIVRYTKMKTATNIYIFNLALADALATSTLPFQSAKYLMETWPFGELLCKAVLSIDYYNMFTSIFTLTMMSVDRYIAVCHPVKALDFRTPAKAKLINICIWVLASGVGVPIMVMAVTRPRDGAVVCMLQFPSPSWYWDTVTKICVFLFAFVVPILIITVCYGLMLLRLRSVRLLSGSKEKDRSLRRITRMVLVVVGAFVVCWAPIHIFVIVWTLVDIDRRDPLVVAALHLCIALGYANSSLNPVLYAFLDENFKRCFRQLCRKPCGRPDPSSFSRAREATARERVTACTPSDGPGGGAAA

Row | Molecule | Day 5 tail withdrawal latency, 48 °C warm water stimulus [1] [s] | Opioid-induced hyperalgesia after chronic administration [1] | Antinociceptive tolerance on day 5 [2] | Effect on ambulation (hyperlocomotion) [3] | Effect on breathing rate compared to vehicle [5] | Forepaw Tremor [7] | Forepaw Licking Frequency [7] | Jumping Frequency [7] | Number of soft stools [7] | Presence of diarrhea [7] | Rearing Frequency [7] | Straightening [7] | Teeth Chattering Frequency [7] | Wet Dog Shakes [7] | Time of peak antinociception after administration ([9]; i.p., 55 °C WWTW) [min] | also measured
1 | C[C@@H](O)[C@@H]1NC(=O)[C@H](CNC(=O)c2ccccc2N)NC(=O)[C@H](NC(=O)[C@@H](N)Cc2ccc(O)cc2)CCCCNC(=O)CNC1=O [CycloAnt, Tyr-[D-Lys-Dap(Ant)-Thr-Gly]] (H-Y[dK][Dap](2Abz)TG; lactam 2-C) | 9.02 ± 0.83 | did not induce significant OIH | significant reductions in the tail-withdrawal latency | induced significant hyperlocomotor activity | did not significantly impair breathing | 23.7 † | 11.2 † | 1.89 † | 6.67 * | yes | 17.8 * | 1.22 | 0 † | 2.22 | – | Ambulation compared with morphine ([3]; after 20 min to end of testing period, p < 0.05 Tukey): significantly less than those induced by morphine; Agonist or antagonist activity at other panel targets [4]: did not produce agonist or antagonist activity at any other target tested in this panel; pEC50 [6]: 7.85; pEC50 [8]: 8.47
2 | CN1CC[C@]23c4c5ccc(O)c4O[C@H]2[C@@H](O)C=C[C@H]3[C@H]1C5 [morphine, reference compound] | 4.35 ± 0.47 | induced significant hyperalgesia | significant reductions in the tail-withdrawal latency | significantly increased ambulation | produced significant dose and time-dependent respiratory depression | 66 * | 1.7 * | 41.6 * | 5.4 * | yes | 22.2 * | 1.1 | 9.5 * | 1.3 | 30 | ED50 ([9]; Mus musculus, ip, 0.5 h, i.p., male C57BL/6J mice, 55 °C WWTW, at peak effect (morphine 30 min), read-out: Antinociceptive ED50 (and 95% confidence interval)): 4.12 mg/kg
3 | Leu-[D-Lys-Dap(Ant)-Thr-Gly] (lariat or depsi) [CycloAnt-Leu, side-to-tail cyclic pentapeptide analog] | – | – | – | – | – | – | – | – | – | – | – | – | – | – | ≤ 20 | Duration of significant antinociception compared to vehicle ([9]; CycloAnt 3 mg/kg i.p., CycloAnt-Leu 100 mg/kg i.p., p < 0.05 Dunnett): 50 min; Fold less potent than morphine (ED50) ([9]; i.p., 55 °C WWTW): 9.3 fold; Antinociceptive ED50 (and 95% confidence interval) ([9]; i.p., male C57BL/6J mice, 55 °C WWTW, at peak effect (morphine 30 min)): 38.3 (18.7–127.1) mg/kg
4 | Tyr-[D-Lys-Dap(Ant)-Tyr-Gly] | – | – | – | – | – | – | – | – | – | – | – | – | – | – | – | Binding affinity for the MOR [10]: 14 nM
